Measured values published in article PMC10587159, “Biosynthesis and engineering of the nonribosomal peptides with a C-terminal putrescine” (Nature Communications, 2023).
Non-standard residues stand in square brackets, D forms with d. Residues, ends and D or L forms follow the SMILES beside them. *: point of attachment. Lauroyl = CCCCCCCCCCCC(=O)*; NH(CH2)4NH2 = NCCCCN*

Assays:
[1] = test system: A1 domain of CsA1T1 (GdnA); experiment: Adenylation activity of A1 domain (ATP/PPi exchange, pyrophosphate production assay); format: biochemical, Schlegelella brevitalea DSM 7029; conditions: for relative activity of A1 domain for the activation of amino acids, Average: CsA1T1 1 μM, 10 mM amino acid, 2.5 mM ATP, pH 7.6, A360, L-Met = 100%, mean of n = 3; for selectivity of A1 domain for amino acids in words: response to reviewers on Supplementary Fig. 6a
Protocol: For pyrophosphate production assays, the reaction system contains 10 mM amino acid substrates, 2.5 mM ATP (Solarbio), 0.2 mM MESG (Medchemexpress), 1 U/mL purine nucleoside phosphorylase (Shanghai yuanye Bio-Technology Co., Ltd), 0.4 U/mL inorganic pyrophosphatase (Sigma), 150 mM hydroxylamine (Sigma) and 1 μM proteins in 100 μL buffer (50 mM Tris, 300 mM NaCl and 5 mM MgCl2, pH 7.6). The value was read at A360 in a SpectraMax M5 plate reader (Molecular Devices, Sunnyvale, California) in 96 well, clear-bottomed plates (Corning). A360 values were converted to pyrophosphate release, by comparing with a standard curve (KH2PO4 from 2 μM to 128 μM) for known quantities of pyrophosphate.

human cells Kasumi = experiment: MTT cytotoxicity assay, Kasumi; format: cell-based; conditions: 24 h
Excerpt: (§1) The two human acute lymphoblastic leukemia cells K562 and Kasumi, two human breast adenocarcinoma cells MCF7 and MDA-MB-231, human hepatoma cell HepG-2, human lung adenocarcinoma cell A549, human gastric cancer cell SGC-7901, human colon cancer cell HCT-116, human ovarian cancer cell line SKOV3, or human lung epithelial normal cell 2B were obtained from Beyotime Biotechnology and utilized to test the cytotoxicity of compounds by MTT assays as previous study. The anti-inflammatory effect of the compounds was detected by the influence on the increase in the level of nitric oxide caused by lipopolysaccharide (LPS) based on the classic Griess method. RAW 264.7 cells (Shanghai Institutes for Biological Science) were seeded in 96-well plates and incubated for 24 h. Then, cells were treated with compounds 29, 29a, 31, and 31a (0-80 μM) for 30 min, followed by co-treatment with LPS ([…]) for another 24 h. The Nitric Oxide assay kit with Griess reagents (Beyotime, Lot: S0021, Shanghai, China) was used to examine cellular supernatant nitrite accumulation, which represents cellular NO levels. The OD value of 540 nm absorbance was detected with a microplate reader. Their authentication in the laboratory was performed regularly based on morphology and gene/protein expression. The tested micro-organisms including Gram-negative bacteria E. coli ATCC 35218 and Pseudomonas aeruginosa ATCC 27853, and Gram-positive bacteria Staphylococcus aureus ATCC 29213 and B. subtilis ATCC 6633, and fungi Candida albicans, Rhizoctonia solani and Aspergillus fumigatus were treated with different concentrations of compounds (1 μM, 10 μM, 100 μM) using Bauer-Kirby disk diffusion method to evaluate the antimicrobial activities.

tumor lines = experiment: MTT cytotoxicity assay, statements on the whole panel; format: cell-based, human; conditions: MTT assay, panel of tumor cell lines
Excerpt: as §1

[2] = test system: human lung adenocarcinoma cell A549; experiment: MTT cytotoxicity assay, A549; format: cell-based; conditions: 24 h
Excerpt: as §1

[3] = test system: human lung epithelial normal cell 2B; experiment: cells; format: cell-based; conditions: 24 h
Excerpt: as §1

[4] = test system: human breast adenocarcinoma cells MCF7; experiment: cells; format: cell-based; conditions: 24 h
Excerpt: as §1

[5] = test system: human gastric cancer cell SGC-7901; experiment: cells; format: cell-based; conditions: 24 h
Excerpt: as §1

[6] = test system: human hepatoma cell HepG-2; experiment: cells; format: cell-based; conditions: 24 h
Excerpt: as §1

[7] = test system: human acute lymphoblastic leukemia cells K562; experiment: cells; format: cell-based; conditions: 24 h
Excerpt: as §1

[8] = test system: human colon cancer cell HCT-116; experiment: cells; format: cell-based; conditions: 24 h
Excerpt: as §1

[9] = test system: human breast adenocarcinoma cells MDA-MB-231; experiment: cells; format: cell-based; conditions: 24 h
Excerpt: as §1

[10] = test system: C13 domain of GdnB fragments and mutants; experiment: Condensation of T12-linked L-Ala with Put or other diamines (yield of 24a-27a, LC-MS); format: biochemical, Schlegelella brevitalea DSM 7029; conditions: Average of n = 3
Protocol: In vitro assays for the different enzymes of the C-terminal multi-domains were performed. Reaction buffer contained 80 μM protein, 3 μM Sfp from B. subtilis, 200 μM CoA, 2.5 mM L-Ala and 5 mM ATP was incubated at 30 °C for 30 min. Then, 2.5 mM diamines or polyamines (i.e. putrescine, 1,7-diaminoheptane, 1,6-diaminohexane, 1,5-diaminopentane, 1,2-diaminocyclohexane, spermine, and spermidine, respectively) was added to make final volume of 200 μL. The reaction was further incubated at 30 °C for 1 h or 4 h. Triple amount of cold methanol was added to quench the reaction, and the supernatant was dried by SpeedVac after removed the precipitate at 10,000 × g for 8 min. The reaction mixture was dissolved with 200 μL ddH2O, and then the mixture was derived with D-FDAA according to the procedure of the above Marfey’s analysis. The final reaction mixture was suspended using 100 μL 2 M HCl, which subsequently was dried by SpeedVac. Finally, the mixture dissolved with 100 μL MeOH to detect the target products (24a, 25a, 26a, and 27a) using LC‒MS analysis (5%‒95% ACN in 15 min).

Compound | relative activity of A1 domain for the activation of amino acids, Average [1] [%] | selectivity of A1 domain for amino acids in words [1] | further results
C[S+]([O-])CC[C@H](N)C(=O)O (stereo partly drawn) [L-MetO] | 74.5064 |  | 
C[C@H](N)C(=O)O [L-Ala] | 37.8571 | broad selectivity | 
NCC(=O)O [Gly] | 3.896 |  | 
NCCCC[C@H](N)C(=O)O [L-Lys] |  | no activity | 
CC[C@H](C)[C@H](N)C(=O)O [L-Ile] | 8.11 | weaker selectivity | 
NC(=O)CC[C@H](N)C(=O)O [L-Gln] | 42.7539 | broad selectivity | 
CC(C)C[C@H](N)C(=O)O [L-Leu] | 48.0078 |  | 
C[C@@H](O)[C@H](N)C(=O)O [L-Thr] | 9.697 |  | 
N[C@@H](Cc1c[nH]cn1)C(=O)O [L-His] | 1.516 |  | 
CCCCCCCCCCCC(=O)N[C@H](CC(C)C)C(=O)N[C@H](CC(N)=O)C(=O)N1CCC[C@H]1C(=O)N[C@H](C(=O)N[C@H](Cc1ccccc1)C(=O)N1CCC[C@H]1C(=O)N[C@@H](Cc1c[nH]c2ccccc12)C(=O)N[C@@H](C(=O)N[C@@H](C)C(=O)N[C@H](C)C(=O)N[C@@H](CO)C(=O)N[C@@H](C)C(=O)NCCCCN)C(C)C)C(C)C [Compound 9, Glidonin I] (Lauroyl-[dL][dN]PV[dF]PW[dV]A[dA]SA-{NH(CH2)4NH2}) |  |  | IC50 (human cells Kasumi): 9.65 ± 0.4 µM; cytotoxic / antitumor activity in words (tumor lines): broad-spectrum cytotoxicity; IC50 [2]: 3.26 µM; IC50 [3]: 10.4 ± 0.54 µM; IC50 [4]: > 20 µM; IC50 [5]: > 20 µM; IC50 [6]: > 20 µM; IC50 [7]: > 20 µM; IC50 [8]: > 20 µM; IC50 [9]: 4.26 µM
CC(N)C(=O)NCCCCNc1cc(NC(C)C(N)=O)c([N+](=O)[O-])cc1[N+](=O)[O-] [Compound 24a, L-Ala-Put-FDAA] |  |  | L-Ala condensing with Put, 1,5-diaminopentane, 1,6-diaminohexane, and 1,7-diaminoheptane (Relative Yield of product) ([10]; protein A12T12): 100; L-Ala condensing with Put, 1,5-diaminopentane, 1,6-diaminohexane, and 1,7-diaminoheptane (Relative Yield of product) ([10]; protein A12T12C13A*T13): 1640
